The text below walks through data of patent US12617797B2, “Substituted pyrazolo [1,5-a]pyrimidines having multimodal activity against pain” (ESTEVE PHARMACEUTICALS, S.A., priority 2020, dated 2026).

Assay [1] addresses T1, Human σ1 receptor (Homo sapiens, UniProt Q99720).
T1 construct: expressed in transfected cells; host or cells: HEK-293
The experiment in a line: Human σ1 receptor radioligand assay ([3H](+)-pentazocine binding, transfected HEK-293 membranes). The settings on record: binding to σ1 receptor expressed as Ki; + also covers inhibition between 1% and 50%; read-out: σ-1 binding. The method, boiled down: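 Ki was derived from five test concentrations, or % inhibition was measured at a single 1 or 10 μM dose, against 5 nM [3H](+)-pentazocine. Incubation was 120 min at 37° C in 50 mM Tris-HCl pH 8 with 7 μg HEK-293 membranes, and 10 μM haloperidol set non-specific binding. Bound radioactivity was counted after filtration.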

For assay [2], the target named is Human α2δ-1 subunit of Cav2.2 calcium channel (Homo sapiens, UniProt P54289). As to the kind of experiment: Human α2δ-1 subunit of Cav2.2 calcium channel assay ([3H]-gabapentin binding). The settings on record: binding to the α2δ-1 subunit of voltage-gated calcium channels expressed as Ki; + also covers inhibition between 1% and 50%. The essentials:
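Displacement of 15 nM [3H]-gabapentin from human α2δ-1-enriched membranes (Hepes-KOH 10 mM, pH 7.4; 27 °C, 60 min) read by filter binding and radioactivity counting. Values are single-point % inhibition (1 or 10 μM) or five-point Ki; 10 μM pregabalin sets NSB.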

Human α2δ-1 subunit of Cav2.2 calcium channel, sequence (P54289 25-1103): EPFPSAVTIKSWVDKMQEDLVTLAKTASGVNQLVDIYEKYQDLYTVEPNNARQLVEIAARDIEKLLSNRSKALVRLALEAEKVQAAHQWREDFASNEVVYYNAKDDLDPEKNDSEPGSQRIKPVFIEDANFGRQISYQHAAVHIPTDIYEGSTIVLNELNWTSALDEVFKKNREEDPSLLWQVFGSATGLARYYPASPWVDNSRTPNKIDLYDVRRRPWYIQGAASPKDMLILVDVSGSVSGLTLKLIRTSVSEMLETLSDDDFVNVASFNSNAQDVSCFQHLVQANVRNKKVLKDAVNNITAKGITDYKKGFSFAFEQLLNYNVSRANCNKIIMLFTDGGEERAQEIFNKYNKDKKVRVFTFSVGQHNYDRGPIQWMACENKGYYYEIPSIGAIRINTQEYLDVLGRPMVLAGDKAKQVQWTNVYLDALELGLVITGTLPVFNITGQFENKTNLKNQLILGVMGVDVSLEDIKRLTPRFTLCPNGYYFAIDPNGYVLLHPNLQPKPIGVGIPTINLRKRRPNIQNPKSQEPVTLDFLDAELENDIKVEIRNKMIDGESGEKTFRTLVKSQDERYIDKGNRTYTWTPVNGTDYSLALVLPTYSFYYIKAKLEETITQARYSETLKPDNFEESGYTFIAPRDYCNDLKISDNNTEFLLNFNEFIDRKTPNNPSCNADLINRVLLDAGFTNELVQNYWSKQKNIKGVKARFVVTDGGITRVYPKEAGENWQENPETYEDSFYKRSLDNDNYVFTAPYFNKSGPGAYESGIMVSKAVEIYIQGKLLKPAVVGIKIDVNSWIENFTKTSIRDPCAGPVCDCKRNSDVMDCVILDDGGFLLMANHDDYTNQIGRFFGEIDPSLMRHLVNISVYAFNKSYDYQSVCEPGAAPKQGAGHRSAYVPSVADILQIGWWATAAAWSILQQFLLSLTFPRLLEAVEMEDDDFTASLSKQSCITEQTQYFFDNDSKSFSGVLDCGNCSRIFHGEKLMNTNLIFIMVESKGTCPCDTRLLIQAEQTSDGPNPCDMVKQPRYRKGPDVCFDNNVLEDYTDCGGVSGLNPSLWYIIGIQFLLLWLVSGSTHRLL
T1 sequence (Q99720 whole entry): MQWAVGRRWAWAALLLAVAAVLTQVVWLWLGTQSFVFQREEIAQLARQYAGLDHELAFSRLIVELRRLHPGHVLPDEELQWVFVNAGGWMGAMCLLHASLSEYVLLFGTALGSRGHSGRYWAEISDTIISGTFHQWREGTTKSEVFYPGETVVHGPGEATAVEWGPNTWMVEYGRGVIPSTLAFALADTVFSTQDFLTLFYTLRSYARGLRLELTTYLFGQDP

For the compound `Cc1nn2c(C3CCCN(Cc4ccc(Cl)cc4)C3)ccnc2c1N(C)C` (centres unmarked) [Example 141, 7-(1-(4-Chlorobenzyl)piperidin-3-yl)-N,N,2-trimethylpyrazolo[1,5-a]pyrimidin-3-amine], the Ki in assay [1] is less than 500 nM; in assay [2], more than 5000 nM.
As to `Cc1nn2c(C3CCCN(Cc4ccc(Cl)cc4)C3)ccnc2c1CNCc1ccc(F)cc1` (centres unmarked) [Example 146, 1-(7-(1-(4-Chlorobenzyl)piperidin-3-yl)-2-methylpyrazolo[1,5-a]pyrimidin-3-yl)-N-(4-fluorobenzyl)methanamine], the Ki was less than 500 nM in assay [1] and 500 to 5000 nM in assay [2].
Turning to `CNCc1c(C)nn2c([C@@H]3CCCN(Cc4ccc(Cl)cc4)C3)ccnc12` [Example 212, (R)-1-(7-(1-(4-Chlorobenzyl)piperidin-3-yl)-2-methylpyrazolo[1,5-a]pyrimidin-3-yl)-N-methylmethanamine], the figures for the Ki in assay [1] and in assay [2] were less than 500 nM and more than 5000 nM, respectively.
For `Cc1nn2c([C@@H]3CCCN(Cc4ccc(Cl)cc4)C3)ccnc2c1CN[C@@H](C)c1ccccc1` [Example 197, (S)—N-((7-((R)-1-(4-chlorobenzyl)piperidin-3-yl)-2-methylpyrazolo[1,5-a]pyrimidin-3-yl)methyl)-1-phenylethan-1-amine], the Ki in assay [1] was less than 500 nM; in assay [2] it was 500 to 5000 nM.
In the case of `Cc1nn2c([C@H]3CCCN(Cc4ccccc4F)C3)ccnc2c1CNCC1CCOCC1` [Example 239, (S)-1-(7-(1-(2-Fluorobenzyl)piperidin-3-yl)-2-methylpyrazolo[1,5-a]pyrimidin-3-yl)-N-((tetrahydro-2H-pyran-4-yl)methyl)methanamine], the Ki was less than 500 nM in assay [1] and more than 5000 nM in assay [2].
On to `Cc1noc(C)c1-c1c(C)nn2c(C3CCCN(Cc4ccc(Cl)cc4)C3)ccnc12` (centres unmarked) [Example 133, 4-(7-(1-(4-Chlorobenzyl)piperidin-3-yl)-2-methylpyrazolo[1,5-a]pyrimidin-3-yl)-3,5-dimethylisoxazole], for which the results for the Ki in assay [1] and in assay [2] were more than 1000 nM and more than 5000 nM, respectively.
The corresponding values for `COc1ccccc1-c1cc2nccc(C3CCCN(Cc4ccccc4)C3)n2n1` (centres unmarked) [Example 29, 7-(1-Benzylpiperidin-3-yl)-2-(2-methoxyphenyl)pyrazolo[1,5-a]pyrimidine] are more than 1000 nM and 500 to 5000 nM.
The corresponding values for `Cc1nn2c([C@H]3CCCN(Cc4ccccc4)C3)ccnc2c1CNC[C@@H]1CCN(C)C(=O)C1` [Example 243, (R)-4-((((7-((S)-1-Benzylpiperidin-3-yl)-2-methylpyrazolo[1,5-a]pyrimidin-3-yl)methyl)amino)methyl)-1-methylpiperidin-2-one] are more than 1000 nM and 500 to 5000 nM.
On to `Cc1nnc(CNCc2c(C)nn3c(C4CCCN(Cc5ccc(Cl)cc5)C4)ccnc23)o1` (centres unmarked) [Example 152, 1-(7-(1-(4-Chlorobenzyl)piperidin-3-yl)-2-methylpyrazolo[1,5-a]pyrimidin-3-yl)-N-((5-methyl-1,3,4-oxadiazol-2-yl)methyl)methanamine], for which the Ki in assay [1] is 500 to 1000 nM; in assay [2], more than 5000 nM.
Regarding `CC(=O)N1CCN(Cc2c(C)nn3c(C4CCCN(Cc5ccc(Cl)cc5)C4)ccnc23)CC1` (centres unmarked) [Example 174, 1-(4-((7-(1-(4-Chlorobenzyl)piperidin-3-yl)-2-methylpyrazolo[1,5-a]pyrimidin-3-yl)methyl)piperazin-1-yl)ethan-1-one], the values for the Ki in assay [1] and in assay [2] were more than 1000 nM and 500 to 5000 nM, respectively.
Consider `CC(=O)N1CCC(CNCc2c(Cl)nn3c([C@H]4CCCN(Cc5ccccc5)C4)ccnc23)CC1` [Example 216, (S)-1-(4-((((7-(1-Benzylpiperidin-3-yl)-2-chloropyrazolo[1,5-a]pyrimidin-3-yl)methyl)amino)methyl)piperidin-1-yl)ethan-1-one], for which the Ki in assay [1] and in assay [2] was less than 500 nM each time.
Turning to `Cc1cnc2c(Br)cnn2c1C1CCCN(Cc2ccccc2)C1` (centres unmarked) [Example 7, 7-(1-Benzylpiperidin-3-yl)-3-bromo-6-methylpyrazolo[1,5-a]pyrimidine], the Ki in assay [1] is more than 1000 nM; in assay [2], more than 5000 nM.
The corresponding values for `Cc1nn2c(C3CCCN(Cc4ccc(Cl)cc4)C3)ccnc2c1CNCCC(C)C` (centres unmarked) [Example 161, N-((7-(1-(4-Chlorobenzyl)piperidin-3-yl)-2-methylpyrazolo[1,5-a]pyrimidin-3-yl)methyl)-3-methylbutan-1-amine] are less than 500 nM and 500 to 5000 nM.
The corresponding values for `COc1ncccc1-c1cc2nccc(C3CCCN(Cc4ccc(Cl)cc4)C3)n2n1` (centres unmarked) [Example 114, 7-(1-(4-Chlorobenzyl)piperidin-3-yl)-2-(2-methoxypyridin-3-yl)pyrazolo[1,5-a]pyrimidine] are more than 1000 nM and more than 5000 nM.
For the compound `Cc1nn2c(C3CCCN(Cc4ccccc4)C3)ccnc2c1CN(CC1C[C@@H](C)O[C@@H](C)C1)C(C)C` (stereo partly drawn) [Example 233, N-((7-(1-Benzylpiperidin-3-yl)-2-methylpyrazolo[1,5-a]pyrimidin-3-yl)methyl)-N-(((2R,6S)-2,6-dimethyltetrahydro-2H-pyran-4-yl)methyl)propan-2-amine], the Ki in assay [1] is 500 to 1000 nM; in assay [2], more than 5000 nM.
On to `COc1cc(-c2c(C)nn3c(C4CCCN(Cc5ccccc5)C4)ccnc23)ccn1` (centres unmarked) [Example 46, 7-(1-Benzylpiperidin-3-yl)-3-(2-methoxypyridin-4-yl)-2-methylpyrazolo[1,5-a]pyrimidine], for which the figures for the Ki in assay [1] and in assay [2] were more than 1000 nM and 500 to 5000 nM, respectively.
The corresponding values for `COc1cc(-c2cnn3c(C4CCCN(Cc5ccccc5)C4)ccnc23)ccn1` (centres unmarked) [Example 38, 7-(1-Benzylpiperidin-3-yl)-3-(2-methoxypyridin-4-yl)pyrazolo[1,5-a]pyrimidine] are more than 1000 nM and 500 to 5000 nM.
With `CC(=O)N1CCC(CNCc2c(C)nn3c([C@H]4CCCN(Cc5ccc(F)c(F)c5)C4)ccnc23)CC1` [Example 247, (S)-1-(4-((((7-(1-(3,4-Difluorobenzyl)piperidin-3-yl)-2-methylpyrazolo[1,5-a]pyrimidin-3-yl)methyl)amino)methyl)piperidin-1-yl)ethan-1-one], the Ki in assay [1] and in assay [2] was less than 500 nM each time.
For the compound `CN[C@@H]1CCN(c2cc3nccc([C@@H]4CCCN(Cc5ccccc5)C4)n3n2)C1` [Example 84, (R)-1-(7-((R)-1-Benzylpiperidin-3-yl)pyrazolo[1,5-a]pyrimidin-2-yl)-N-methylpyrrolidin-3-amine], the results for the Ki in assay [1] and in assay [2] were more than 1000 nM and 500 to 5000 nM, respectively.
For the compound `Cc1nn2c(C3CCCN(Cc4ccc(Cl)cc4)C3)ccnc2c1CNCCc1ccccc1` (centres unmarked) [Example 153, N-((7-(1-(4-Chlorobenzyl)piperidin-3-yl)-2-methylpyrazolo[1,5-a]pyrimidin-3-yl)methyl)-2-phenylethan-1-amine], the Ki in assay [1] is less than 500 nM; in assay [2], 500 to 5000 nM.
For `Cc1nn2c(C3CCCN(Cc4ccc(Cl)cc4)C3)ccnc2c1CN1CCN(S(C)(=O)=O)CC1` (centres unmarked) [Example 175, 7-(1-(4-Chlorobenzyl)piperidin-3-yl)-2-methyl-3-((4-(methylsulfonyl)piperazin-1-yl)methyl)pyrazolo[1,5-a]pyrimidine], the Ki is more than 1000 nM in assay [1] and more than 5000 nM in assay [2].
`Cc1nn2c([C@H]3CCCN([C@@H](CO)c4ccccc4)C3)ccnc2c1-c1ccncc1` [Example 108, (R)-2-((S)-3-(2-methyl-3-(pyridin-4-yl)pyrazolo[1,5-a]pyrimidin-7-yl)piperidin-1-yl)-2-phenylethanol]: the Ki in assay [1] is more than 1000 nM; in assay [2] it was more than 5000 nM.
